Results from PubChem BioAssay (NCI).
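Protocol summary: plate cells (96-well), add compound at 5 concentrations, incubate 48 h, interpolate endpoints linearly. GI50 = concentration required for 50% inhibition of growth. At the TGI there is no net growth.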

What was measured:
Assay in all cases: inhibition of tumour cell growth, NCI panel, 48 h
[1] = tested on: CCRF-CEM leukemia
[2] = tested on: U251 CNS
[3] = tested on: EKVX NSCLC
[4] = tested on: HL-60(TB) leukemia
[5] = tested on: NCI-H460 lung
[6] = tested on: UACC-257 melanoma
[7] = tested on: SNB-75 CNS
[8] = tested on: HCT-116 colon
[9] = tested on: ACHN renal
[10] = tested on: MDA-MB-435
[11] = tested on: COLO 205 colon
[12] = tested on: OVCAR-3 ovarian
[13] = tested on: NCI/ADR-RES ovarian
[14] = tested on: T-47D breast
[15] = tested on: SF-295 CNS
[16] = tested on: M14 melanoma
[17] = tested on: CAKI-1 renal
[18] = tested on: A549 NSCLC
[19] = tested on: MDA-MB-231 breast
[20] = tested on: SR leukemia
[21] = tested on: 786-0 renal
[22] = tested on: SK-MEL-2 melanoma
[23] = tested on: DU-145 prostate
[24] = tested on: SK-MEL-28 melanoma
[25] = tested on: UACC-62 melanoma
[26] = tested on: UO-31 renal
[27] = tested on: SN12C renal
[28] = tested on: NCI-H522 lung
[29] = tested on: SNB-19 CNS
[30] = tested on: TK-10 renal
[31] = tested on: A498 renal
[32] = tested on: HOP-62 NSCLC
[33] = tested on: KM12 colon
[34] = tested on: MALME-3M melanoma
[35] = tested on: HT29 colon
[36] = tested on: NCI-H23 lung
[37] = tested on: SF-268 CNS
[38] = tested on: HCC-2998 colon
[39] = tested on: SK-OV-3 ovarian
[40] = tested on: MOLT-4 leukemia
[41] = tested on: IGROV1 ovarian
[42] = tested on: SK-MEL-5 melanoma
[43] = tested on: OVCAR-8 ovarian
[44] = tested on: LOX IMVI melanoma
[45] = tested on: RPMI-8226 leukemia
[46] = tested on: PC-3 prostate
[47] = tested on: OVCAR-5 ovarian
[48] = tested on: SW-620 colon
[49] = tested on: NCI-H226 lung
[50] = tested on: SF-539 CNS
[51] = tested on: OVCAR-4 ovarian
[52] = tested on: MCF7 breast
[53] = tested on: HOP-92 NSCLC
[54] = tested on: HCT-15 colon
[55] = tested on: RXF 393 renal
[56] = tested on: K-562 leukemia
[57] = tested on: HS 578T breast
[58] = tested on: BT-549 breast

In the case of `C#CC(=O)N(c1ccc(OC)cc1OC)C(C(=O)NCC(=O)OCC)c1cccs1` (stereo unspecified), the GI50 [1] is reported as 27.7 nM, the TGI [1] is reported as 81 nM and the GI50 [2] is reported as 445 nM. For the same compound, the TGI [2] was 1260 nM, the GI50 [3] was 260 nM and the TGI [3] was 1320 nM. The GI50 [4] was 18.7 nM, the TGI [4] was 38.7 nM and the GI50 [5] was 717 nM. For the same compound, the TGI [5] was 6.84 µM, the GI50 [6] was 3.29 µM and the TGI [6] was 13 µM. The GI50 [7] was 152 nM, the TGI [7] was 399 nM and the GI50 [8] was 1580 nM. For the same compound, the TGI [8] was 3.42 µM, the GI50 [9] was 114 nM and the TGI [9] was 1250 nM. For the same compound, the GI50 [10] was 3.8 µM, the TGI [10] was 16.2 µM and the GI50 [11] was 1810 nM. It also gave a TGI [11] of 3.74 µM, a GI50 [12] of 160 nM and a TGI [12] of 528 nM. For the same compound, the GI50 [13] was 177 nM, the TGI [13] was 813 nM and the GI50 [14] was 2010 nM. For the same compound, the TGI [14] was 5.1 µM, the GI50 [15] was 183 nM and the TGI [15] was 362 nM. For the same compound, the GI50 [16] was 1880 nM, the TGI [16] was 4.54 µM and the GI50 [17] was 187 nM. It also gave a TGI [17] of 901 nM, a GI50 [18] of 5.56 µM and a TGI [18] of 31.7 µM. For the same compound, the GI50 [19] was 173 nM, the TGI [19] was 1140 nM and the GI50 [20] was 22 nM. It also gave a TGI [20] of 52.8 nM, a GI50 [21] of 19.1 nM and a TGI [21] of 38.9 nM. The GI50 [22] was 11 µM, the TGI [22] was 26.2 µM and the GI50 [23] was 436 nM. It also gave a TGI [23] of 4.02 µM, a GI50 [24] of 2260 nM and a TGI [24] of 6.03 µM. It also gave a GI50 [25] of 1470 nM, a TGI [25] of 5.81 µM and a GI50 [26] of 16.7 nM. The TGI [26] was 33.9 nM, the GI50 [27] was 2210 nM and the TGI [27] was 16.5 µM. For the same compound, the GI50 [28] was 83.1 nM, the TGI [28] was 258 nM and the GI50 [29] was 2420 nM. It also gave a TGI [29] of 8.08 µM, a GI50 [30] of 3.96 µM and a TGI [30] of 10.7 µM. For the same compound, the GI50 [31] was 215 nM, the TGI [31] was 541 nM and the GI50 [32] was 436 nM. For the same compound, the TGI [32] was 2280 nM, the GI50 [33] was 372 nM and the TGI [33] was 2240 nM. For the same compound, the GI50 [34] was 66 nM, the TGI [34] was 164 nM and the GI50 [35] was 241 nM. It also gave a TGI [35] of 610 nM, a GI50 [36] of 257 nM and a TGI [36] of 1070 nM. For the same compound, the GI50 [37] was 326 nM, the TGI [37] was 1170 nM and the GI50 [38] was 4.98 µM. For the same compound, the TGI [38] was 17.7 µM, the GI50 [39] was 1820 nM and the TGI [39] was 3.4 µM. The GI50 [40] was 375 nM, the TGI [40] was 1950 nM and the GI50 [41] was 30 nM. It also gave a TGI [41] of 97.9 nM, a GI50 [42] of 8.82 µM and a TGI [42] of 21.3 µM. For the same compound, the GI50 [43] was 970 nM, the TGI [43] was 17.9 µM and the GI50 [44] was < 12.5 nM. The TGI [44] was < 18.5 nM, the GI50 [45] was 44.9 nM and the TGI [45] was 193 nM. For the same compound, the GI50 [46] was 871 nM, the TGI [46] was 7.88 µM and the GI50 [47] was 574 nM. The TGI [47] was 2330 nM, the GI50 [48] was 1270 nM and the TGI [48] was 3.05 µM. For the same compound, the GI50 [49] was 11.3 µM, the TGI [49] was 38 µM and the GI50 [50] was 56.7 nM. For the same compound, the TGI [50] was 110 nM, the GI50 [51] was 1750 nM and the TGI [51] was 3.97 µM. It also gave a GI50 [52] of 2040 nM, a TGI [52] of 9.1 µM and a GI50 [53] of 31.3 nM. The TGI [53] was 110 nM, the GI50 [54] was 759 nM and the TGI [54] was 2390 nM. The GI50 [55] was 271 nM, the TGI [55] was 1010 nM and the GI50 [56] was 594 nM. The TGI [56] was 2960 nM, the GI50 [57] was 444 nM and the TGI [57] was 3.26 µM. It also gave a GI50 [58] of 318 nM and a TGI [58] of 1190 nM.
